Results from PubChem BioAssay AID252 (DTP/NCI, 2004).
Several values for one entry are separate records, joined by “and”; a condition that tells them apart may be missing. Identical values can stand only once. Inconclusive results and toxic doses are left out. How the source made its calls: active means survival T/C of 150% or more; inactive means T/C below 125% in these data.

Test system: BDF1 mice, intracerebral L1210 leukemia, survival T/C
Experiment: NCI In Vivo Anticancer Drug Screen. Data for tumor model L1210 Leukemia (intracerebral) in B6D2F1 (BDF1) mice
Details: endpoint: mean survival time, higher = longer survival
Procedure, shortened: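 Antitumour effect is judged in mice with transplanted tumour by comparing survival of treated (T) against vehicle-dosed (C) groups as T/C.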

Measured: T/C

O=NN(CCCl)C(=O)NC1CCCCC1
active: dose: 8.0 mg/kg/injection, schedule: Q01DX009 (ip), vehicle: carboxymethylcellulose (CMC) 212 % of control | dose: 8.0 mg/kg/injection, schedule: Q01DX Z (ip), vehicle: carboxymethylcellulose (CMC) 202 % of control | dose: 12.0 mg/kg/injection, schedule: Q01DX Z (ip), vehicle: carboxymethylcellulose (CMC) 213 % of control | dose: 12.5 mg/kg/injection, schedule: Q01DX001 (ip), vehicle: carboxymethylcellulose (CMC) 166 % of control and 176 % of control | dose: 16.0 mg/kg/injection, schedule: Q01DX009 (ip), vehicle: carboxymethylcellulose (CMC) 302 % of control | dose: 16.0 mg/kg/injection, schedule: Q01DX Z (ip), vehicle: carboxymethylcellulose (CMC) 152 % of control and 162 % of control | dose: 20.0 mg/kg/injection, schedule: Q01DX001 (ip), vehicle: carboxymethylcellulose (CMC) 292 % of control | dose: 24.25 mg/kg/injection, schedule: Q01DX001 (oral), vehicle: carboxymethylcellulose (CMC) 266 % of control and 288 % of control and 339 % of control | dose: 25.0 mg/kg/injection, schedule: Q01DX001 (ip), vehicle: saline 231 % of control | dose: 25.0 mg/kg/injection, schedule: Q01DX001 (oral), vehicle: saline 243 % of control | dose: 30.0 mg/kg/injection, schedule: Q01DX001 (ip), vehicle: carboxymethylcellulose (CMC) 240 % of control and 321 % of control | dose: 30.0 mg/kg/injection, schedule: Q01DX001 (ip), vehicle: saline 322 % of control | dose: 31.0 mg/kg/injection, schedule: Q01DX Z (ip), vehicle: carboxymethylcellulose (CMC) 152 % of control | dose: 32.0 mg/kg/injection, schedule: Q01DX001 (ip), vehicle: carboxymethylcellulose (CMC) 165 % of control and 246 % of control | dose: 33.0 mg/kg/injection, schedule: Q01DX001 (ip), vehicle: carboxymethylcellulose (CMC) 459 % of control | dose: 36.0 mg/kg/injection, schedule: Q01DX001 (ip), vehicle: carboxymethylcellulose (CMC) 277 % of control | dose: 37.5 mg/kg/injection, schedule: Q01DX001 (ip), vehicle: carboxymethylcellulose (CMC) 269 % of control | dose: 40.0 mg/kg/injection, schedule: Q01DX001 (ip), vehicle: saline 240 % of control | dose: 43.0 mg/kg/injection, schedule: Q01DX001 (ip), vehicle: carboxymethylcellulose (CMC) 481 % of control and 731 % of control | dose: 45.0 mg/kg/injection, schedule: Q01DX001 (ip), vehicle: carboxymethylcellulose (CMC) 189 % of control | dose: 48.0 mg/kg/injection, schedule: Q01DX001 (ip), vehicle: carboxymethylcellulose (CMC) 274 % of control and 306 % of control | dose: 48.5 mg/kg/injection, schedule: Q01DX001 (oral), vehicle: carboxymethylcellulose (CMC) 278 % of control and 337 % of control and 420 % of control | dose: 50.0 mg/kg/injection, schedule: Q01DX001 (ip), vehicle: saline 218 % of control and 277 % of control | dose: 50.0 mg/kg/injection, schedule: Q01DX001 (oral), vehicle: saline 255 % of control | dose: 55.0 mg/kg/injection, schedule: Q01DX001 (ip), vehicle: carboxymethylcellulose (CMC) 473 % of control | dose: 60.0 mg/kg/injection, schedule: Q01DX001 (ip), vehicle: carboxymethylcellulose (CMC) 359 % of control and 414 % of control and 463 % of control | dose: 60.0 mg/kg/injection, schedule: Q01DX001 (ip), vehicle: saline 227 % of control | dose: 70.0 mg/kg/injection, schedule: Q01DX001 (ip), vehicle: carboxymethylcellulose (CMC) 267 % of control | dose: 72.0 mg/kg/injection, schedule: Q01DX001 (ip), vehicle: carboxymethylcellulose (CMC) 208 % of control and 284 % of control and 293 % of control | dose: 75.0 mg/kg/injection, schedule: Q01DX001 (ip), vehicle: carboxymethylcellulose (CMC) 294 % of control | dose: 75.0 mg/kg/injection, schedule: Q01DX001 (ip), vehicle: saline 276 % of control | dose: 75.0 mg/kg/injection, schedule: Q01DX001 (oral), vehicle: saline 208 % of control | dose: 80.0 mg/kg/injection, schedule: Q01DX001 (ip), vehicle: carboxymethylcellulose (CMC) 184 % of control | dose: 86.0 mg/kg/injection, schedule: Q01DX001 (ip), vehicle: carboxymethylcellulose (CMC) 184 % of control and 211 % of control
inactive: dose: 1.0 mg/kg/injection, schedule: Q01DX001 (ip), vehicle: saline 101 % of control | dose: 1.0 mg/kg/injection, schedule: Q01DX001 (oral), vehicle: saline 91 % of control | dose: 1.0 mg/kg/injection, schedule: Q01DX Z (ip), vehicle: carboxymethylcellulose (CMC) 103 % of control and 116 % of control | dose: 2.0 mg/kg/injection, schedule: Q01DX009 (ip), vehicle: carboxymethylcellulose (CMC) 106 % of control | dose: 2.0 mg/kg/injection, schedule: Q01DX Z (ip), vehicle: carboxymethylcellulose (CMC) 104 % of control and 108 % of control | dose: 4.0 mg/kg/injection, schedule: Q01DX Z (ip), vehicle: carboxymethylcellulose (CMC) 118 % of control | dose: 5.0 mg/kg/injection, schedule: Q01DX001 (ip), vehicle: carboxymethylcellulose (CMC) 115 % of control | dose: 5.1 mg/kg/injection, schedule: Q01DX001 (ip), vehicle: carboxymethylcellulose (CMC) 111 % of control and 120 % of control | dose: 10.0 mg/kg/injection, schedule: Q01DX001 (ip), vehicle: saline 113 % of control | dose: 10.0 mg/kg/injection, schedule: Q01DX001 (oral), vehicle: saline 115 % of control | dose: 14.0 mg/kg/injection, schedule: Q01DX001 (ip), vehicle: carboxymethylcellulose (CMC) 114 % of control and 122 % of control | dose: 62.0 mg/kg/injection, schedule: Q01DX Z (ip), vehicle: carboxymethylcellulose (CMC) 91 % of control and 94 % of control | dose: 70.0 mg/kg/injection, schedule: Q01DX001 (ip), vehicle: saline 109 % of control | dose: 97.0 mg/kg/injection, schedule: Q01DX001 (oral), vehicle: carboxymethylcellulose (CMC) 120 % of control and 122 % of control | dose: 100.0 mg/kg/injection, schedule: Q01DX001 (ip), vehicle: carboxymethylcellulose (CMC) 103 % of control | dose: 100.0 mg/kg/injection, schedule: Q01DX001 (ip), vehicle: saline 89 % of control | dose: 100.0 mg/kg/injection, schedule: Q01DX001 (oral), vehicle: saline 102 % of control
